Source: patent US20230123140A1, “DOSE TREATMENTS OF TAUOPATHIES” (AC Immune SA, priority 2020, published 2023)
Several values for one entry are separate records, joined by “and”; a condition that tells them apart may be missing. Identical values can stand only once.

What was measured:
[1] = tested on: healthy subjects; assay: First-in-human study, multiple ascending dose (MAD) part: safety and tolerability; assay type: in vivo; conditions: MAD cohorts
Source text: A First-In-Human, Randomized, Placebo-Controlled, Double-Blind, SAD/MAD Study to Assess the Safety, Tolerability, Pharmacokinetics, and Pharmacodynamics of ACI-3024
The objective of the study is to assess the safety, tolerability, pharmacokinetics (PK), and pharmacodynamics (PD) of single ascending doses (SAD) and multiple ascending doses (MAD) of ACI-3024 in a first-in-human, randomized, placebo-controlled, double-blind, sequential SAD/MAD study with open-label food effect and pharmacodynamic assessment arms. The study comprises different parts to be conducted in Healthy Volunteers: • 1) one Single Ascending Dose (SAD) part in which several cohorts are being investigated with single ascending doses of ACI-3024. The food effect is also explored in this part. • 2) one Multiple Ascending Dose (MAD) part in which several cohorts are being investigated with multiple ascending doses of ACI-3024. Each study part is assessing the safety, tolerability, pharmacokinetics and pharmacodynamics of ACI-3024.
This part was conducted in elderly non-Japanese healthy subjects (MAD HV1 to MAD HV3 cohorts) and in non-elderly Japanese and non-Japanese healthy male subjects (MAD HV4 cohort).
The healthy subject part of Part III was a multiple dose, sequential group study. Overall, 30 healthy elderly male or female non Japanese subjects are being studied in 3 cohorts (Cohorts MAD HV1 to MAD-HV3), with each cohort consisting of 10 subjects. A cohort of 10 healthy non-elderly male Japanese and non-Japanese subjects were enrolled (MAD HV4) to collect safety, tolerability, PK, and PD biomarker data and to enable direct comparisons between non-elderly Japanese and non-Japanese subjects after multiple doses. The dose used in this cohort is based on previously conducted cohorts in non Japanese elderly healthy subjects to assess the effect of multiple doses in non-elderly male Japanese subjects compared to non-elderly non-Japanese male subjects. The MAD HV4 cohort was dosed in parallel with the MAD HV3 cohort. […]

[2] = CSF concentrations of ACI-3024 in MAD cohort MAD-HV3; assay type: in vivo
Description: Methods for measuring the amount of administered compound, such as ACI-3024, in CSF of a subject are well know in the art. As an example, CSF can be drawn by lumbar puncture and content of the administered compound can be analysed by a LC-MS/MS method, among other methods.
Cohorts MAD-HV1 to MAD-HV3 comprised 10 elderly non-Japanese male or female subjects, 8 were treated with ACI-3024 and 2 were being given placebo. Cohort MAD-HV4 comprised 5 non-elderly Japanese subjects (4 treated with ACI-3024 and 1 given placebo) and 5 […] (4 treated with ACI-3024 and 1 given placebo). Only subjects from MAD HV3 cohort underwent CSF samplings to explore the CSF inflammatory markers, CSF PK, and CSF PD of ACI-3024. For all subjects, dosing was on […], inclusive, and a final single dose administration occurred on […]. Dose in cohort MAD HV1 was 500 mg of ACI-3024 or placebo, QD, fasted. Dose in cohorts MAD HV2 and MAD HV4 was 500 mg of ACI-3024 or placebo, BID (“bis in die” ie., twice a day), fed. Dose in cohort MAD HV3 was 1400 mg of ACI-3024 or placebo, QD (“quaque die” (once a day), fed.

[3] = Toxicokinetics in the 4-week mouse toxicity study; assay type: in vivo; conditions: for AUC(0-t) / Cmax / Tmax: plasma
Description: This study was conducted to evaluate the potential toxicity of ACI-3024 when given daily by oral gavage to CD1 mice for 4 weeks, followed by a 2-week recovery period. Doses of 100, 300 and 1000 mg/kg were administered by p.o. to 10 animals/sex/group daily. The control animals were administered vehicle. The dose volume was 10 mL/kg for all groups.

[4] = Toxicokinetics in the 4-week mini-pig toxicity study; assay type: in vivo; conditions: for AUC(0-t) / Cmax / Tmax: Gottingen, minipig, plasma, Day 28, 450 mg/kg oral
Description: Doses tested, 50, 150 and 450 mg/kg were given by p.o. to 3 animals/sex/group daily. The control animals were administered vehicle. The dose volume was 5 mL/kg for all groups.
Toxico Kinetic (TK) was evaluated on all animals on study Day 1 and Day 28 at different time points.

[5] = tested on: Central Nervous System function; assay: Central nervous system evaluation in mice (functional observation battery); assay type: in vivo, mouse; conditions: single oral administration 100, 300 or 750 mg/kg, female CD1 mice
Description: This study was conducted to evaluate the potential modifications of central nervous system (CNS) activity by ACI-3024 when given as single dose to CD1 mice.
Doses of 100, 300 and 750 mg/kg were administered by oral gavage to 8 females/group. The control animals were administered vehicle. The dose volume was 10 mL/kg for all groups. Approximately 2, 4, 6 and 24 hours after the treatment, each mouse was subjected to a functional observation battery in order to investigate possible treatment-induced effects on the CNS or in any of its domains: neurologic, autonomic and behavioral.

[6] = tested on: respiratory function; assay: Respiratory function evaluation in mice (whole body plethysmography); assay type: in vivo, mouse; conditions: single oral administration 100, 300 and 750 mg/kg, conscious female mice
Description: This study was conducted to evaluate the potential modifications of respiratory function by ACI-3024 when given as single dose to CD1 mice.
Doses of 100, 300 and 750 mg/kg were administered by oral gavage to 8 females/group. The control animals were administered vehicle. The dose volume was 10 mL/kg for all groups. Animals underwent a whole body plethysmography carried out starting 30 minutes before dosing up to 5 hours after; moreover, a subsequent 1-hour registration was conducted 24 hours post dose.

[7] = both sexes, mouse, Day 28, 300 mg/kg oral, average M/F CD-1 mice
[8] = mouse, Day 28, 300 mg/kg oral, female CD-1 mice
[9] = mouse, Day 28, 300 mg/kg oral, male CD-1 mice
[10] = both sexes, average M/F minipigs

In the case of `Fc1ccc2c3c([nH]c2c1)CCN(c1ccc2oc(N4CCOCC4)nc2c1)C3` [ACI-3024], the “serious adverse events of liver injury possibly related to study drug” value ([1]; 14 days) is reported as 2, the “AEs considered related or possibly related to study drug” value ([1]; 14 days, of 89 AEs) is reported as 33 and the SAEs ([1]; dose below 1000 mg/day) is reported as “did not show SAEs”. For the same molecule, the “CSF pre-dose concentrations versus target” value ([2]; MAD, 1400 mg, target established in animal models) was greater than 30 nM, the Kp ([2]; both sexes, human, CSF, oral, elderly subjects, multiple doses of 1400 mg QD (fed), read-out: CSF concentration as share of the corresponding plasma concentration) was 0.003 to 0.015 and the “dose that would provide sufficient CSF exposure (30 nM)” value ([2]; extrapolated from 1400 mg CSF data) was 300 to 400 mg/day. The “pre-dose (Cmin) CSF concentration” value ([2]; multiple oral doses of 1400 mg, Day 7) was 36.4±13.6 ng/mL and 90 nM, the “dose proportionality of plasma exposure” value ([3]; 100 to 1000 mg/kg) was “less than dose proportionally” and the AUC(0-t) [3, 7] was 353 µg·h/mL. For the same molecule, the Cmax [3, 7] was 25800 ng/mL, the Tmax [3, 7] was 4 h and the Tmax ([3]; female, CD1, mouse, oral, females, high-dose group (1000 mg/kg), delayed) was 24 h. For the same molecule, the “sex difference in exposure” value ([3]; in general, except 300 mg/kg/day on Day 28) was “higher exposure was observed in females than in males”, the AUC(0-t) [3, 8] was 320 µg·h/mL and the Cmax [3, 8] was 23400 ng/mL. The Tmax [3, 8] was 4 h, the AUC(0-t) [3, 9] was 386 µg·h/mL and the Cmax [3, 9] was 28300 ng/mL. For the same molecule, the Tmax [3, 9] was 4 h, the accumulation ([3]; repeated administrations, Day 1 vs. Day 28) was “slight ACI-3024 accumulation” and the “dose proportionality of plasma exposure” value ([4]; 50 to 450 mg/kg, except males on Day 1) was “approximately dose-proportionally”. It also gave an AUC(0-t) ([4]; female minipigs) of 101 µg·h/mL, a Cmax ([4]; female minipigs) of 7350 ng/mL and a Tmax ([4]; female minipigs) of 4 h. It also gave an AUC(0-t) ([4]; male minipigs) of 233 µg·h/mL, a Cmax ([4]; male minipigs) of 12300 ng/mL and a Tmax ([4]; male minipigs) of 6 h. For the same molecule, the AUC(0-t) [4, 10] was 167 µg·h/mL, the Cmax [4, 10] was 9840 ng/mL and the Tmax [4, 10] was 5 h. The “effect on Central Nervous System function” value [5] was “no effect” and the “effect on respiratory parameters” value [6] was “did not exert effect”.
